Measurements taken from patent US5889018A, “Heterocyclic compounds, pharmaceutical compositions comprising them and process for the preparation thereof” (Egis Gyogyszergyar RT., priority 1994, dated 1999).
Where two headings read alike, the source gives them in different places.

Legend:
[1] = in vivo; conditions: mouse, NMRI mice, 7 days observation
Description: White mice belonging to the NMRI strain (body weight 20 to 25 g. both male and female) were used, 6 animals for each dose. The test compound was administered orally in a volume of 20 ml/kg, the maximum oral and intraperitoneal doses were 1000 mg/kg and 300 mg/kg, respectively. […] The mice were kept under usual laboratory conditions.

[2] = tested on: Male Wistar rats (Charles River); assay: Hole-Board Test, head-dipping activity; type: in vivo; conditions: Rattus norvegicus, po, 1 h, p.o., one hour before testing, from head-dipping activity, read-out: Minimum effective dose (mg/kg, p.o.)
Description: The experiment was carried out according to a slightly modified method of File [File, S. E., Wardill, A. G., Psychopharmacologia, 44, 53-59, (1975)]. Male Wistar rats (Charles River) weighing 160-200 g were fasted for 24 hours prior to the experiment. They were treated orally in a volume of 5 ml/kg one hour before testing, a treated group consisted of 12 animals. The test compounds were suspended in 0,4 methylcellulose solution, the control group was treated with methylcellulose. All procedures were carried out in a quiet, air-conditioned laboratory between 9:00 and 13:00 hours at ambient temperature (23°+2° C.). Locomotor and head-dipping activity were measured using automated test chambers (Digiscan, OMNITECH Electronics Inc., Columbus, Ohio). The floor of each box contained 4 equally spaced holes (3.5 cm in diameter) through which rat could pop its head. Interruptions of infrared beams (16 of them is located 1.0 cm below and an other […] above the floor level) were automatically recorded by digiscan analyser and then transmitted to a computer and analysed by OASIS softwer. The hole-board testing involved placing a rat in the center of the floor and allowing it to explore for 5 minutes.
At the end of each trial any boluses were removed and the box was thoroughly wiped. Minimum effective doses of the compounds were calculated from the head-dipping activity values.

[3] = tested on: Male Wistar rats; assay: Vogel Test (Lick Conflict Test), anxiolytic activity; type: in vivo; conditions: Rattus norvegicus, po, 1 h, p.o., one hour before testing, read-out: Minimum effective dose (mg/kg, p.o.)
Description: 1. Vogel Test (Lick Conflict Test)
Male Wistar rats of 160 to 180 g body weight were kept free of food and drinking water for 24 and 48 hours, respectively. The test and carrier substances (0.4% methyl-cellulose) were administered orally one hour before testing. Groups consisting of 8 animals were used. The rats within the experimental chamber were provided with drinking water through an inserted tube. After the animals' each twenty lapping for water the device emitted a 1.4 mA intensity electric shock through the drinking tube. During 5 minutes the shocks tolerated by the animals in order to quench their thirst were counted. The effect of treatment was expressed as the % increase of the tolerated shocks. The minimum effective dose (MED) was determined for each test compound (Vogel, J. R., Beer, B., Clody, D. E.: Psycho-pharmacologia (Berl.) 21, 1 /1971/).

[4] = tested on: Male rats belonging to the Sprague Dawley strain; assay: Elevated Plus Maze Test on Rat, anxiolytic activity; type: in vivo; conditions: for minimal effective dose: Rattus norvegicus, po, 1 h, p.o., 60 minutes pretreatment, significant increase of time spent on the open arms, Sprague Dawley rats, read-out: Minimum effective dose (mg/kg, p.o.)
Description: 1.2 Elevated Plus Maze Test on Rat
The test was carried out with the aid of a wooden plus-shaped maze elevated to a height of 50 cm. Two arms (100 cm long and 15 cm wide)--opposite to one another--were enclosed up to a height of 40 cm along their longer sides and at the end. The other two arms were without walls (open arms). The central 15×15 cm part was open. Male rats belonging to the Sprague Dawley strain and weighing 220 to 260 g were used as test animals. After pretreatment lasting 60 minutes the animals were placed into the central part of the maze. During the 5 minutes observation period the following parameters were recorded: […]
time spent on the open arms time spent on the closed arms number of open arm entries number of closed arm entries.
The drug effect was expressed as percent increase of the time spent on the open arms and number of open arm entries. The minimum effective dose which caused a significant increase of the time spent on the open arms was calculated for every substance [Pelow, S., Chopin, P., File, S. E., Briley, M.: J. Neurocsi. Methods 14, 149-167 (1985)].

[5] = ip, read-out: LD50 (mg/kg, i.p.)
[6] = po, read-out: LD50 (mg/kg, p.o.)

| Structure (SMILES) | LD50 at 168 h [1, 5] [mg/kg] | LD50 at 168 h [1, 6] [mg/kg] | minimal effective dose [2] [mg/kg] | minimal effective dose [3] [mg/kg] | minimal effective dose [4] [mg/kg] | times more effective than diazepam ([4]; elevated plus maze, relative to diazepam) [times] |
| --- | --- | --- | --- | --- | --- | --- |
| Clc1ccc(C=Cc2nccc3ccccc23)c(Cl)c1 [Example 8, 1-(2,4-dichlorostyryl)-isoquinoline] | > 300 | > 1000 | – | – | – | – |
| COc1cc2cc(C)nc(C=Cc3ccc(Cl)cc3)c2cc1OC [Example 2, 1-(4-chlorostyryl)-3-methyl-6,7-dimethoxyisoquinoline] | > 300 | > 1000 | – | – | – | – |
| COc1cc2ccnc(C=Cc3ccc(C(F)(F)F)cc3)c2cc1OC [Example 6, 6,7-dimethoxy-1-[4-(trifluoromethyl)-styryl]-isoquinoline] | > 300 | > 1000 | 0.0001 | 0.01 | – | – |
| COc1cc2cc(C)nc(C=Cc3ccc(C#N)cc3)c2c(OC)c1OC [Example 9, 1-(4-cyanostyryl)-3-methyl-6,7,8-trimethoxyisoquinoline] | > 300 | > 1000 | – | 0.01 | – | – |
| COc1cc2cc(C)nc(C=Cc3ccc([N+](=O)[O-])cc3)c2cc1OC [Example 4, 3-methyl-6,7-dimethoxy-1-(4-nitrostyryl)-isoquinoline] | > 300 | > 1000 | – | 0.01 | – | – |
| COc1ccc(C=Cc2nccc3cc4c(cc23)OCO4)cc1OC [Example 20, 1-(3,4-dimethoxystyryl)-6,7-methylenedioxyisoquinoline] | > 300 | > 1000 | – | – | – | – |
| FC(F)(F)c1ccc(C=Cc2nccc3cc4c(cc23)OCO4)cc1 [Example 3, 6,7-methylenedioxy-1-[(4-trifluoromethyl)-styryl]-isoquinoline] | > 300 | > 1000 | 0.0001 | 1e-05 | 0.1 | 25 |
| COc1ccc(C=Cc2nccc3cc(OC)c(OC)cc23)cc1OC [Example 7, 1-(3,4-dimethoxystyryl)-6,7-dimethoxyisoquinoline] | > 300 | 1000 | – | – | – | – |
| COc1cc2ccnc(C=Cc3ccc(F)cc3)c2cc1OC [Example 5, 1-(4-fluorostyryl)-6,7-dimethoxyisoquinoline] | > 300 | > 1000 | – | 0.0003 | – | – |
| CN1C(=O)CN=C(c2ccccc2)c2cc(Cl)ccc21 [Diazepam, reference compound] | – | – | 0.1 | 0.1 | 2.5 | – |
| COc1ccc(C=Cc2nccc3cc(OC)c(OC)cc23)cc1 [Example 21, 6,7-dimethoxy-1-(4-methoxystyryl)-isoquinoline] | > 300 | > 1000 | 0.01 | 0.03 | – | – |
| Cc1cc2cc3c(cc2c(C=Cc2cccc(Br)c2)n1)OCO3 [Example 19, 1-(3-bromostyryl)-3-methyl-6,7-methylenedioxyisoquinoline] | > 300 | > 1000 | – | – | – | – |
